Data from US20070117180A1, “Enzyme producing plasma protein fragment having inhibitory activity to metastasis and growth of cancer and plasma protein fragment produced by fragmentation by said enzyme” (priority 1998, published 2007).

Tests used:
plasmin = experiment: Remaining plasmin activity after cleavage by PACE4 (FIG. 8); format: biochemical; conditions: with passage of time of cleavage by PACE4
Text: Moreover, the enzyme of the present invention, producing angiostatin that comprises Kringles 1 to 4, also cleaves plasmin in the vicinity of its active center (between the 699th Phe and 700th Ala) to let plasmin be inactivated. This cleaving property of the enzyme is quite significant in view of efficient protection against cancer development. This is because angiostatin that inhibits growth of cancer is produced by fragmentation of plasminogen while the simultaneously produced active center of plasmin (plasmin serine protease domain) possibly further promotes cancer development. In addition, it is possible that vascularization and cancer invasion accelerated by the plasmin activity is further accelerated by removal of the Kringle domains. This is because such removal of the Kringle domains would attenuate the inhibitory activity of plasmin-inhibitory proteins occurring within the living body, including alpha 2 plasmin inhibitor (hereinafter referred to as “α2-PI”). Plasmin present in plasma is immediately inactivated by α2-PI circulating in the blood stream wherein the Kringle domains serve as a binding site between plasmin and α2-PI. Deprivation of the domains much reduces the activity of […]. […]

plasminogen = experiment: Fragmentation of plasminogen by purified PACE4 at pH 7.0 or pH 4.0 (FIG. 6); format: biochemical, human; conditions: reacted at neutral and acidic ranges of pH
Experimental: FIG. 6 depicts fragmentation patterns of plasminogen when reacted at neutral and acidic ranges of pH. […] In FIG. 6, the arrow A (→A) indicates a band corresponding to angiostatin from PC-3 according to Gately et al. whereas the arrow B (→B) indicates a band corresponding to a fragment comprising Kringles 1 to 4 produced by PACE4. […] The N-terminal amino acid residue of each fragment was analyzed to be F-74 for A, P-452 for B and A-700 for C, respectively.

Lewis lung cancer cells = experiment: Inhibitory activity of PACE4 to growth of metastasized cancerous focus in immunodeficient mice (lung weight, FIG. 9); format: in vivo, immunodeficient (Scid) mice
Text: As a system for estimating inhibitory effects to growth of metastasized cancerous focus of PACE4 per se, immunodeficient (Scid) mice were employed. Lung cancer cells (3LL; provided from Cell Resource Center for Biomedical Research, Institute of Development, Aging and Cancer, Tohoku University) were subcutaneously transplanted to Scid mice at the back. The animals were bred until a primary cancerous focus grows up to a predetermined size. So that severity of disease conditions is taken into consideration, mice were divided into two groups based on the size of a primary cancerous focus; one with a primary cancerous focus weighing not more than 1200 mg and the other with a primary cancerous focus weighing more than 1200 mg. The primary cancerous focus in each group was removed surgically. Each group was then further divided into three groups: a group receiving a high or low concentration of PACE4, and a control group. The sample was administered to mice intraperitoneally at 40 μg/mouse/day or 8 μg/mouse/day for 10 days. As a control, the same amount of physiological saline, as used for dissolving the lyophilized sample, was administered to mice.
After completion of test, mice were dissected and the lung was weighed and compared with the control group (Mann Whetney U test).
To immunodeficient mice of 6 weeks old were transplanted subcutaneously 10^6 Lewis lung cancer cells (LL/2) at the back. The animals were bred for 14 to 17 days and cancer (primary cancerous focus) formed at the back was surgically removed. Based on size of the primary cancerous focus formed, the animals were divided into two groups: one with the primary cancerous focus of not more than 1200 mg (200 mg to 1200 mg) and the other of more than 1200 mg (1201 mg to 2500 mg). Each of these two groups was further divided into three groups: ones that received a high or low dose of the enzyme of the present invention (PACE4) and control. […]

[1] = system: bovine aorta endothelial (BAE) cells; experiment: Test for inhibitory activity to growth of vascular endothelial cells, bovine aorta endothelial cells; format: cell-based; parameters: dose or concentration left out as unconfirmed; conditions: cell count after 72 hours; plasminogen fragments
Experimental: The activity of the plasminogen fragments was also estimated as described by O'Reilly et al. using bovine aorta endothelial (BAE) cells purchased from Sanko Jun-yaku K.K. BAE cells were cultured for maintenance on a 24-well plate (manufactured by Iwaki Glass K.K.) coated with gelatin in a DMEM basal medium containing 10% fetal calf serum (FCS), 3 ng/ml basic FGF (bFGF), 1% glutamine, 1% penicillin and 1% streptomycin at 5% CO2. BAE cells were plated on a 24-well gelatin-coated plate at 12,500 cells/well and cultured on the basal medium deprived of bFGF for 24 hours. […] contained 5% FCS but was deprived of bFGF and the plasminogen fragments were reacted with the cells at 37° C. for 20 minutes. A physiological saline was used as a negative control whereas angiostatin (Angiostatin, manufactured by Technoclone) was used as a positive control. After reaction, the basal medium containing 5% FCS and 2 ng/ml bFGF was added and the cells were cultured at 37° C. for additional 72 hours. The cells were peeled off the well with trypsin/EDTA solution and counted with Coulter counter (manufactured by Coulter).

[2] = system: BCE (Bovine capillary endothelial); experiment: Inhibition of BCE vascular growth by fibronectin degraded products; format: cell-based
Text: (§1) The present inventors focused on fibronectin, a plasma component that is produced in great deal under cancerous conditions and is deeply involved in cell adhesion, and cleaved this with the enzyme of the present invention. […] The degraded products produced by the enzyme from fibronectin were separated with heparin Sepharose (Pharmacia). […] The obtained degraded products were estimated for their inhibitory activity to vascularization in the vascular endothelial cell system as described above.

[3] = system: vascular endothelial cells; experiment: Inhibitory activity to growth of the vascular endothelial cells of plasma protein fragments produced by PACE4; format: cell-based; conditions: as described in Example 13
Text: as §1
Moreover, the present inventors also cleaved several kinds of fractions obtained from alcoholic fractionation of plasma proteins with the enzyme of the present invention. Alcohol was removed from alcoholic fractions by dialysis, followed by dialysis with citric phosphate buffer (pH 4.0). The resulting fractions were mixed with the enzyme at a ratio of the protein to the enzyme, 100:1, and the mixture was reacted at 38° C. overnight. […]
A test for inhibitory activity to growth of vascular endothelial cells was performed as described by Gately et al. using Human Umbilical vein endothelial (HUV) cells (HUVEC; Sanko Jun-yaku K.K.). […] The cells were peeled off the well with trypsin/EDTA solution and counted with Coulter counter (manufactured by Coulter). […]

Question: Which results are given for “PACE4: about 45 kDa aspartic enzyme purified from PC-3 culture supernatant, N-terminus LVRIPLHKFT, high homology to human cathepsin D precursor”?
Answer: remaining plasmin activity (plasmin): plasmin activity disappears; pH range at which plasminogen is fragmented (plasminogen): only at an acidic range of pH; inhibitory activity to growth of metastasized cancerous focus (lung weight) (Lewis lung cancer cells; primary cancerous focus more than 1200 mg (B), 40 or 8 μg/mouse/day i.p. for 10 days, 3LL cells): exhibited inhibitory activity to growth of metastasized cancerous focus in a concentration dependent manner; inhibitory activity to increase in lung weight (Lewis lung cancer cells; primary cancerous focus more than 1200 mg, 10 or 2 μg/animal i.p. for 10 days, LL/2 cells): observed in a dose dependent manner; lung weight, PACE4 administration versus control (Lewis lung cancer cells; primary cancerous focus not more than 1200 mg, 10 or 2 μg/animal i.p. for 10 days, LL/2 cells): no significant difference

Question: For angiostatin [reference compound], which “inhibitory activity to growth of the vascular endothelial cells” value [1] is on record?
Answer: The value was “exhibited the inhibitory activity”.

Question: What does the source list for fibronectin?
Answer: inhibitory ability to BCE vascular growth [2]: not found; growth of the vascular endothelial cells (FIG. 15) [3]: no such inhibitory activity
